Key:
Assay in all cases: KINOMEscan
Format in all cases: binding
Conditions in all cases: read-out: % Ctrl
[1] = target: T1, ABL1(T315I)-phosphorylated (Homo sapiens, UniProt P00519, T315I)
T1 construct: purchased DiscoveRx KINOMEscan

ABL1-phosphorylated = target: T2, ABL1-phosphorylated (Homo sapiens, UniProt P00519)
T2 construct: purchased DiscoveRx KINOMEscan
In short: (§1)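 Competition binding panel of 442 non-mutant kinases: test compound at 5 and 10 μM competed with an active-site-directed ligand for 1 h with shaking. Bound kinase was eluted with 0.5 μM ligand and quantified by qPCR; %Ctrl = (compound − positive control)/(DMSO − positive control) × 100, lower meaning tighter binding.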

AKT3 = target: T3, AKT3 (Homo sapiens, UniProt Q9Y243)
T3 construct: purchased DiscoveRx KINOMEscan
In short: as §1

ALK = target: T4, ALK (Homo sapiens, UniProt Q9UM73)
T4 construct: purchased DiscoveRx KINOMEscan
In short: as §1

BLK = target: T5, BLK (Homo sapiens, UniProt P51451)
T5 construct: purchased DiscoveRx KINOMEscan
In short: as §1

CDKL3 = target: T6, CDKL3 (Homo sapiens, UniProt Q8IVW4)
T6 construct: purchased DiscoveRx KINOMEscan
In short: as §1

CSK = target: T7, CSK (Homo sapiens, UniProt P41240)
T7 construct: purchased DiscoveRx KINOMEscan
In short: as §1

DMPK = target: T8, DMPK (Homo sapiens, UniProt Q09013)
T8 construct: purchased DiscoveRx KINOMEscan
In short: as §1

EPHA1 = target: T9, EPHA1 (Homo sapiens, UniProt P21709)
T9 construct: purchased DiscoveRx KINOMEscan
In short: as §1

ERBB3 = target: T10, ERBB3 (Homo sapiens, UniProt P21860)
T10 construct: purchased DiscoveRx KINOMEscan
In short: as §1

ERK4 = target: T11, ERK4 (Homo sapiens, UniProt P31152)
T11 construct: purchased DiscoveRx KINOMEscan
In short: as §1

ERK8 = target: T12, ERK8 (Homo sapiens, UniProt Q8TD08)
T12 construct: purchased DiscoveRx KINOMEscan
In short: as §1

ERN1 = target: T13, ERN1 (Homo sapiens, UniProt O75460)
T13 construct: purchased DiscoveRx KINOMEscan
In short: as §1

JNK3 = target: T14, JNK3 (Homo sapiens, UniProt P53779)
T14 construct: purchased DiscoveRx KINOMEscan
In short: as §1

LIMK2 = target: T15, LIMK2 (Homo sapiens, UniProt P53671)
T15 construct: purchased DiscoveRx KINOMEscan
In short: as §1

MAP3K1 = target: T16, MAP3K1 (Homo sapiens, UniProt Q13233)
T16 construct: purchased DiscoveRx KINOMEscan
In short: as §1

MAP4K5 = target: T17, MAP4K5 (Homo sapiens, UniProt Q9Y4K4)
T17 construct: purchased DiscoveRx KINOMEscan
In short: as §1

NEK4 = target: T18, NEK4 (Homo sapiens, UniProt P51957)
T18 construct: purchased DiscoveRx KINOMEscan
In short: as §1

PIK4CB = target: T19, PIK4CB (Homo sapiens, UniProt Q9UBF8)
T19 construct: purchased DiscoveRx KINOMEscan
In short: as §1

PRKCE = target: T20, PRKCE (Homo sapiens, UniProt Q02156)
T20 construct: purchased DiscoveRx KINOMEscan
In short: as §1

PRKCQ = target: T21, PRKCQ (Homo sapiens, UniProt Q04759)
T21 construct: purchased DiscoveRx KINOMEscan
In short: as §1

PRKG2 = target: T22, PRKG2 (Homo sapiens, UniProt Q13237)
T22 construct: purchased DiscoveRx KINOMEscan
In short: as §1

RIOK1 = target: T23, RIOK1 (Homo sapiens, UniProt Q9BRS2)
T23 construct: purchased DiscoveRx KINOMEscan
In short: as §1

RIPK4 = target: T24, RIPK4 (Homo sapiens, UniProt P57078)
T24 construct: purchased DiscoveRx KINOMEscan
In short: as §1

[2] = target: T25, RSK1(Kin.Dom.1-N-terminal) (Homo sapiens, UniProt Q15418)
T25 construct: RSK1(Kin.Dom.1-N-terminal); purchased DiscoveRx KINOMEscan
In short: as §1

SNARK = target: T26, SNARK (Homo sapiens, UniProt Q9H093)
T26 construct: purchased DiscoveRx KINOMEscan
In short: as §1

ULK1 = target: T27, ULK1 (Homo sapiens, UniProt O75385)
T27 construct: purchased DiscoveRx KINOMEscan
In short: as §1

ULK3 = target: T28, ULK3 (Homo sapiens, UniProt Q6PHR2)
T28 construct: purchased DiscoveRx KINOMEscan
In short: as §1

YANK2 = target: T29, YANK2 (Homo sapiens, UniProt Q9NY57)
T29 construct: purchased DiscoveRx KINOMEscan
In short: as §1

YANK3 = target: T30, YANK3 (Homo sapiens, UniProt Q86UX6)
T30 construct: purchased DiscoveRx KINOMEscan
In short: as §1

T5 sequence (P51451 whole entry): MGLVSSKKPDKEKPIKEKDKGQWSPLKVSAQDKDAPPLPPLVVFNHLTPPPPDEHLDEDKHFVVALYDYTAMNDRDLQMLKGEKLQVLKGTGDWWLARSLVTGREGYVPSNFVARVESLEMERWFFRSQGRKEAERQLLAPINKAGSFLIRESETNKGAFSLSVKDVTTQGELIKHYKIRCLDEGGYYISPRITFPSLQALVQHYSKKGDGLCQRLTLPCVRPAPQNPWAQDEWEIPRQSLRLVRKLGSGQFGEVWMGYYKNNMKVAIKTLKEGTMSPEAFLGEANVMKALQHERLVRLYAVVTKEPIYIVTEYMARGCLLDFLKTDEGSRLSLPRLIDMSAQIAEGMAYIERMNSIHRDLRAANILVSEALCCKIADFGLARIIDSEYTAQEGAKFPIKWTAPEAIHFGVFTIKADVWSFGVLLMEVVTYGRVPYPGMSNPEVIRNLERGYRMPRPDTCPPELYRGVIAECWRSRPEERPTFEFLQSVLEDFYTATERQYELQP
T28 sequence (Q6PHR2 whole entry): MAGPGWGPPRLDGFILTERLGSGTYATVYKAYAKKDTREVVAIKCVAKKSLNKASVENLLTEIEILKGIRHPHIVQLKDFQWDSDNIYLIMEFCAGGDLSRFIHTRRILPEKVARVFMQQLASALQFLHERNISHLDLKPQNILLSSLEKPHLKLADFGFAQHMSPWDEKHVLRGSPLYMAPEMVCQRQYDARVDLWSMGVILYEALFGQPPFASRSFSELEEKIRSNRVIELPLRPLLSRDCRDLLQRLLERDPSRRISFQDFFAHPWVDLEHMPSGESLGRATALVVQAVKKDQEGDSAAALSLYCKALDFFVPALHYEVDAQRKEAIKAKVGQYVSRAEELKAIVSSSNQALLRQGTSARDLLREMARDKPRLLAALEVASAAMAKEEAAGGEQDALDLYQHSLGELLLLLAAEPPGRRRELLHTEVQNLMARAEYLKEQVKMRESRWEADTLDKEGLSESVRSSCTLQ
T25 sequence (Q15418 1-391 limits assumed): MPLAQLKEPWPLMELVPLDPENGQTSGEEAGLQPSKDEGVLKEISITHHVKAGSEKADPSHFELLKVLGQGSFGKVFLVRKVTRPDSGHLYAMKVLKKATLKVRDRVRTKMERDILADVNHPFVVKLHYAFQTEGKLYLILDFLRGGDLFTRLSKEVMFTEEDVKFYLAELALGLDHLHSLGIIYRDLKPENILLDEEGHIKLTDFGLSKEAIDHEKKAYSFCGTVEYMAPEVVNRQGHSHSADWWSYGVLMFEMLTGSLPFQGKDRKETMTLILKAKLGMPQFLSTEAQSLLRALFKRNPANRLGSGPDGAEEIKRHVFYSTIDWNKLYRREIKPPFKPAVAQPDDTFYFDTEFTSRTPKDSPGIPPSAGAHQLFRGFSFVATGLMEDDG
T23 sequence (Q9BRS2 whole entry): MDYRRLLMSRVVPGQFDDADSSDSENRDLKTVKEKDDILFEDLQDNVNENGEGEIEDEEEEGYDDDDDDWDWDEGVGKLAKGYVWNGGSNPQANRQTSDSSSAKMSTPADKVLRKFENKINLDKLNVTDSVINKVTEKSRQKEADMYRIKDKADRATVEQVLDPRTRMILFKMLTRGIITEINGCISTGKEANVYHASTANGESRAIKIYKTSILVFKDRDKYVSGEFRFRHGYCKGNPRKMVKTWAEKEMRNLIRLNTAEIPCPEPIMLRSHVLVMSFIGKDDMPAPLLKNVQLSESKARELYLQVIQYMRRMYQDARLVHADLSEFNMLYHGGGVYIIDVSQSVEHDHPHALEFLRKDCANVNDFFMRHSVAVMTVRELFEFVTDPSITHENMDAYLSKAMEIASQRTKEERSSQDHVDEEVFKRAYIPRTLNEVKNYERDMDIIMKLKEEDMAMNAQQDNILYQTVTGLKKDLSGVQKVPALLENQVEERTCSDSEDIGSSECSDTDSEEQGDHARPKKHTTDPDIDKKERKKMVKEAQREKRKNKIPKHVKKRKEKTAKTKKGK
T8 sequence (Q09013 whole entry): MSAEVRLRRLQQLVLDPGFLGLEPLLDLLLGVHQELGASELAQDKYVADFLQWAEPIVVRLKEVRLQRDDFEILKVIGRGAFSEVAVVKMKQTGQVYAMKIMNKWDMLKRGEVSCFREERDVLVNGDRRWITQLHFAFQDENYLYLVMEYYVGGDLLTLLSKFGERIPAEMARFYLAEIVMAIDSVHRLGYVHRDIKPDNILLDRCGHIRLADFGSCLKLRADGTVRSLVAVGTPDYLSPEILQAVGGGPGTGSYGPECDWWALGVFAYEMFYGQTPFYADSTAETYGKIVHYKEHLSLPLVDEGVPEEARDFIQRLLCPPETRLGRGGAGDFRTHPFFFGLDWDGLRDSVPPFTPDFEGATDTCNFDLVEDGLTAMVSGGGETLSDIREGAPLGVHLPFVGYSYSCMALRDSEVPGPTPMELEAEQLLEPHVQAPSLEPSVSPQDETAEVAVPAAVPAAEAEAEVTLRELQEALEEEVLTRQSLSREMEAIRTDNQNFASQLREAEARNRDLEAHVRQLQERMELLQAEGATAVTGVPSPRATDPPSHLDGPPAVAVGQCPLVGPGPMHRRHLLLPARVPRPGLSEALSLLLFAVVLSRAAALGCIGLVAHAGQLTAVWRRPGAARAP
T11 sequence (P31152 whole entry): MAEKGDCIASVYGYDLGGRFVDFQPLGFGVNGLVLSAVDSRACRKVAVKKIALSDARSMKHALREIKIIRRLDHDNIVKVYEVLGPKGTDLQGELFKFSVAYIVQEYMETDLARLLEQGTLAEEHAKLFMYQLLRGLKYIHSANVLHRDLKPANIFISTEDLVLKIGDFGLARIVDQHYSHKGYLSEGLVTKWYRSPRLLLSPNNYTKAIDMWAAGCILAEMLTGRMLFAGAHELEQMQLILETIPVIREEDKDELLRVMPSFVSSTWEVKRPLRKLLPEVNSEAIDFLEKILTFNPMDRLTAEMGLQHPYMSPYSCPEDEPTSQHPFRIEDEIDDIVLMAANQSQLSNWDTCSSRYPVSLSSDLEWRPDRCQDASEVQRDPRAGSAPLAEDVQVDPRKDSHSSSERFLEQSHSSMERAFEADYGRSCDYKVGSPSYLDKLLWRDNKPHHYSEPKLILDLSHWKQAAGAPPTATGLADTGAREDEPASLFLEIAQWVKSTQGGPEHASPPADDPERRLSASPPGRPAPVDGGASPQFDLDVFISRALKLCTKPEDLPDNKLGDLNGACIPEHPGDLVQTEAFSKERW
T26 sequence (Q9H093 whole entry): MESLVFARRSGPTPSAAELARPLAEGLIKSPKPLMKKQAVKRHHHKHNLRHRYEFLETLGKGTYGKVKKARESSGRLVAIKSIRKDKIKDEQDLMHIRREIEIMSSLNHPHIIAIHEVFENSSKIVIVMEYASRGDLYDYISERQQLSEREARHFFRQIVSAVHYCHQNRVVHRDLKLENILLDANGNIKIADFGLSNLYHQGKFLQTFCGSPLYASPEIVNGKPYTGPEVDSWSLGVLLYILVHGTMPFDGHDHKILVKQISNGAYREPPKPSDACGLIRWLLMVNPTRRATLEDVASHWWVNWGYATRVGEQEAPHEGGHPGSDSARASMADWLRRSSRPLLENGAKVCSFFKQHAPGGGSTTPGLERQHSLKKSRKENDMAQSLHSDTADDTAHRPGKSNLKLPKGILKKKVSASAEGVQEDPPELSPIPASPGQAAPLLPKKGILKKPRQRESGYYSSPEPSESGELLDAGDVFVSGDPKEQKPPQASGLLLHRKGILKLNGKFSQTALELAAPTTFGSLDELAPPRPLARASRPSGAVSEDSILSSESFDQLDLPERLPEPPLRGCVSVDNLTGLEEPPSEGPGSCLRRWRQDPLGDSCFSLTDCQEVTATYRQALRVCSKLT
T24 sequence (P57078 whole entry): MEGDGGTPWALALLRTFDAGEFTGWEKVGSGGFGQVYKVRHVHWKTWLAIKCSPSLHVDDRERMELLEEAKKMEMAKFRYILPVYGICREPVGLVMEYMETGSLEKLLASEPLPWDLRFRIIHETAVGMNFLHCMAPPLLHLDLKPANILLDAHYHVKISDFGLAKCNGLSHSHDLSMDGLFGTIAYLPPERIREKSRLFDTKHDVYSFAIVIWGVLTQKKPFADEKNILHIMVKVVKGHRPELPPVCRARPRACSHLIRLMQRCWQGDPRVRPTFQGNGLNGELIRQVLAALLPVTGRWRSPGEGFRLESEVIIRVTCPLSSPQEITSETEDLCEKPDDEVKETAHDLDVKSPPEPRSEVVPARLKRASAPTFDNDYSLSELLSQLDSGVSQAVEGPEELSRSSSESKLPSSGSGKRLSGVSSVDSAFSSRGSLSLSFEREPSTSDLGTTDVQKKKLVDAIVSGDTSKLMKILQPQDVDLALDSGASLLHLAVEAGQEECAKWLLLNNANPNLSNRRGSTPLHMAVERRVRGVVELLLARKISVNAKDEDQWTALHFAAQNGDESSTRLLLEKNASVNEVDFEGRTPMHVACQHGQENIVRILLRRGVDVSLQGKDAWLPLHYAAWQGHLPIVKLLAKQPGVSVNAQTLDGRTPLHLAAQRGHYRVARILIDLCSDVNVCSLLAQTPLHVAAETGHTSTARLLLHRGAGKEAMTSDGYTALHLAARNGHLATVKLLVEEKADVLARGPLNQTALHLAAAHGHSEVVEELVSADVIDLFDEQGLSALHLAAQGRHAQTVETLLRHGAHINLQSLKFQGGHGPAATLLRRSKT
T29 sequence (Q9NY57 whole entry): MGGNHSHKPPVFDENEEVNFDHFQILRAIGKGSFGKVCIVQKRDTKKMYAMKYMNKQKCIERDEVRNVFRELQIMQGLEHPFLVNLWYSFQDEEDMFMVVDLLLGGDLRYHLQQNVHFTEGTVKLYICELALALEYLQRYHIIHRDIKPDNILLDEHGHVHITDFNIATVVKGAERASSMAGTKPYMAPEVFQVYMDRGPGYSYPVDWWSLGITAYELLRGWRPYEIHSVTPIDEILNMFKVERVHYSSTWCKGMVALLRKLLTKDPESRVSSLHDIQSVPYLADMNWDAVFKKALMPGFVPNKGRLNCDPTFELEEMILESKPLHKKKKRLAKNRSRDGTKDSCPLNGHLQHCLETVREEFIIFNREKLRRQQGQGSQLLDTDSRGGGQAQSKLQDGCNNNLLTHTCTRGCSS

**Q.** Which remaining binding at 5 µM ([1]; 5 μM) does the source give for `Cc1ccc(C2=Nc3cccnc3S(=O)(=O)c3ccccc32)cc1` [TBPT, 6-(p-tolyl)benzo[f] pyrido[2,3-b][1,4] thiazepine 11,11-dioxide] here?
**A.** 100%

**Q.** What about the remaining binding at 10 µM ([1]; 10 μM) of the same molecule?
**A.** 100%

**Q.** What about the remaining binding at 5 µM (ABL1-phosphorylated; 5 μM) of the same molecule?
**A.** 72%

**Q.** What about the remaining binding at 10 µM (ABL1-phosphorylated; 10 μM) of the same molecule?
**A.** 97%

**Q.** And the remaining binding at 5 µM (AKT3; 5 μM)?
**A.** 100%

**Q.** And the remaining binding at 10 µM (AKT3; 10 μM)?
**A.** 100%

**Q.** What about the remaining binding at 5 µM (ALK; 5 μM) of the same molecule?
**A.** 100%

**Q.** And the remaining binding at 10 µM (ALK; 10 μM)?
**A.** 71%

**Q.** What about the remaining binding at 5 µM (BLK; 5 μM) of the same molecule?
**A.** 88%

**Q.** And the remaining binding at 10 µM (BLK; 10 μM)?
**A.** 88%

**Q.** What about the remaining binding at 5 µM (CDKL3; 5 μM) of the same molecule?
**A.** 77%

**Q.** What about the remaining binding at 10 µM (CDKL3; 10 μM) of the same molecule?
**A.** 74%

**Q.** And the remaining binding at 5 µM (CSK; 5 μM)?
**A.** 96%

**Q.** And the remaining binding at 10 µM (CSK; 10 μM)?
**A.** 100%

**Q.** And the remaining binding at 5 µM (DMPK; 5 μM)?
**A.** 88%

**Q.** What about the remaining binding at 10 µM (DMPK; 10 μM) of the same molecule?
**A.** 100%

**Q.** And the remaining binding at 5 µM (EPHA1; 5 μM)?
**A.** 100%

**Q.** What about the remaining binding at 10 µM (EPHA1; 10 μM) of the same molecule?
**A.** 94%

**Q.** And the remaining binding at 5 µM (ERBB3; 5 μM)?
**A.** 45%

**Q.** What about the remaining binding at 10 µM (ERBB3; 10 μM) of the same molecule?
**A.** 100%

**Q.** What about the remaining binding at 5 µM (ERK4; 5 μM) of the same molecule?
**A.** 89%

**Q.** What about the remaining binding at 10 µM (ERK4; 10 μM) of the same molecule?
**A.** 100%

**Q.** And the remaining binding at 5 µM (ERK8; 5 μM)?
**A.** 94%

**Q.** And the remaining binding at 10 µM (ERK8; 10 μM)?
**A.** 100%

**Q.** And the remaining binding at 5 µM (ERN1; 5 μM)?
**A.** 92%

**Q.** And the remaining binding at 10 µM (ERN1; 10 μM)?
**A.** 100%

**Q.** And the remaining binding at 5 µM (JNK3; 5 μM)?
**A.** 84%

**Q.** What about the remaining binding at 10 µM (JNK3; 10 μM) of the same molecule?
**A.** 95%

**Q.** And the remaining binding at 5 µM (LIMK2; 5 μM)?
**A.** 91%

**Q.** What about the remaining binding at 10 µM (LIMK2; 10 μM) of the same molecule?
**A.** 100%

**Q.** And the remaining binding at 5 µM (MAP3K1; 5 μM)?
**A.** 100%

**Q.** What about the remaining binding at 10 µM (MAP3K1; 10 μM) of the same molecule?
**A.** 100%

**Q.** What about the remaining binding at 5 µM (MAP4K5; 5 μM) of the same molecule?
**A.** 100%

**Q.** And the remaining binding at 10 µM (MAP4K5; 10 μM)?
**A.** 85%

**Q.** And the remaining binding at 5 µM (NEK4; 5 μM)?
**A.** 65%

**Q.** And the remaining binding at 10 µM (NEK4; 10 μM)?
**A.** 99%

**Q.** And the remaining binding at 5 µM (PIK4CB; 5 μM)?
**A.** 100%

**Q.** What about the remaining binding at 10 µM (PIK4CB; 10 μM) of the same molecule?
**A.** 93%

**Q.** What about the remaining binding at 5 µM (PRKCE; 5 μM) of the same molecule?
**A.** 100%

**Q.** And the remaining binding at 10 µM (PRKCE; 10 μM)?
**A.** 100%

**Q.** And the remaining binding at 5 µM (PRKCQ; 5 μM)?
**A.** 100%

**Q.** And the remaining binding at 10 µM (PRKCQ; 10 μM)?
**A.** 100%

**Q.** What about the remaining binding at 5 µM (PRKG2; 5 μM) of the same molecule?
**A.** 88%

**Q.** What about the remaining binding at 10 µM (PRKG2; 10 μM) of the same molecule?
**A.** 98%

**Q.** And the remaining binding at 5 µM (RIOK1; 5 μM)?
**A.** 83%

**Q.** What about the remaining binding at 10 µM (RIOK1; 10 μM) of the same molecule?
**A.** 76%

**Q.** What about the remaining binding at 5 µM (RIPK4; 5 μM) of the same molecule?
**A.** 100%

**Q.** What about the remaining binding at 10 µM (RIPK4; 10 μM) of the same molecule?
**A.** 100%

**Q.** What about the remaining binding at 5 µM ([2]; 5 μM) of the same molecule?
**A.** 100%

**Q.** What about the remaining binding at 10 µM ([2]; 10 μM) of the same molecule?
**A.** 74%

**Q.** And the remaining binding at 5 µM (SNARK; 5 μM)?
**A.** 100%

**Q.** What about the remaining binding at 10 µM (SNARK; 10 μM) of the same molecule?
**A.** 100%

**Q.** What about the remaining binding at 5 µM (ULK1; 5 μM) of the same molecule?
**A.** 100%

**Q.** What about the remaining binding at 10 µM (ULK1; 10 μM) of the same molecule?
**A.** 83%

**Q.** And the remaining binding at 5 µM (ULK3; 5 μM)?
**A.** 100%

**Q.** And the remaining binding at 10 µM (ULK3; 10 μM)?
**A.** 100%

**Q.** And the remaining binding at 5 µM (YANK2; 5 μM)?
**A.** 99%

**Q.** What about the remaining binding at 10 µM (YANK2; 10 μM) of the same molecule?
**A.** 100%

**Q.** And the remaining binding at 5 µM (YANK3; 5 μM)?
**A.** 88%

**Q.** And the remaining binding at 10 µM (YANK3; 10 μM)?
**A.** 96%
